Test results: patent US4272437A, “Antibacterial agents, and 4-thio azetidinone intermediates” (priority 1979, dated 1981)
In brackets after ≈: the same amount, converted by molar mass. Like-named read-outs stand apart in the source and are kept apart here.

Columns and labels:
Ent. cloacae A-9659 = experiment: MIC, tube dilution, Enterobacter cloacae A9659; assay type: cell-based; details: Enterobacter cloacae, A9659, Enterobacter cloacae A9659; overnight 37° C.; read-out: Minimum Inhibitory Concentration (M.I.C.)
From the text: (§1) Representative compounds of the present invention were subjected to in vitro antibiotic screening against a variety of microorganisms.

[1] = tested on: Staph. aureus A-9537 and 50% serum; experiment: MIC, tube dilution, Staph. aureus A9537 + 50% serum; assay type: cell-based, Staphylococcus aureus; details: Staphylococcus aureus, overnight 37° C., read-out: Minimum Inhibitory Concentration (M.I.C.)
From the text: as §1

Str. pneumoniae A-9585 = experiment: MIC, tube dilution, Streptococcus pneumoniae A9585; assay type: cell-based; details: Streptococcus pneumoniae, A9585, Str. pneumoniae A9585; overnight 37° C., Nutrient Broth; read-out: Minimum Inhibitory Concentration (M.I.C.)
From the text: as §1

Str. faecalis A-20688 = experiment: MIC, tube dilution, Streptococcus faecalis A20688; assay type: cell-based; details: Enterococcus faecalis, A20688, Str. faecalis A20688; overnight 37° C.; read-out: Minimum Inhibitory Concentration (M.I.C.)
From the text: as §1

S. aureus A9537 = experiment: In vivo protection of mice, lethal infection with S. aureus A9537; details: Staphylococcus aureus, A9537, im, IM, 2 treatments, read-out: PD50
Method: Representative compounds of the present invention were also tested in vivo in mice and their PD50 (dose of compound in mg/kg required to protect 50% of the treated mice against an otherwise lethal infection of a micro-organism) values determined with respect to the test organisms shown below.

Ser. marcescens A-20019 = experiment: MIC, tube dilution, Serratia marcescens A20019; assay type: cell-based; details: Serratia marcescens, A20019, Serratia marcescens A20019; overnight 37° C.; read-out: Minimum Inhibitory Concentration (M.I.C.)
From the text: as §1

Ps. aeruginosa A-21213 = experiment: MIC, tube dilution, Pseudomonas aeruginosa A21213; assay type: cell-based; details: overnight 37° C., read-out: Minimum Inhibitory Concentration (M.I.C.)
From the text: as §1

K. pneumoniae A-15130 = experiment: MIC, tube dilution, Klebsiella pneumoniae A15130; assay type: cell-based; details: Klebsiella pneumoniae, A15130, K. pneumoniae A15130; overnight 37° C.; read-out: Minimum Inhibitory Concentration (M.I.C.)
From the text: as §1

E. coli A-20341-1 = experiment: MIC, tube dilution, Escherichia coli A20341-1; assay type: cell-based; details: Escherichia coli, A203411, E. coli A20341-1; overnight 37° C.; read-out: Minimum Inhibitory Concentration (M.I.C.)
From the text: as §1

Staph. aureus A-9537 = experiment: MIC, tube dilution, Staphylococcus aureus A9537; assay type: cell-based; details: Staphylococcus aureus, A9537, Staph. aureus A9537; overnight 37° C., Nutrient Broth; read-out: Minimum Inhibitory Concentration (M.I.C.)
From the text: as §1

Pr. mirabilis A-9900 = experiment: MIC, tube dilution, Proteus mirabilis A9900; assay type: cell-based; details: Proteus mirabilis, A9900, Proteus mirabilis A9900; overnight 37° C.; read-out: Minimum Inhibitory Concentration (M.I.C.)
From the text: as §1

Pr. morganii A-15153 = experiment: MIC, tube dilution, Proteus morganii A15153; assay type: cell-based; details: Morganella morganii, A15153, Proteus morganii A15153; overnight 37° C.; read-out: Minimum Inhibitory Concentration (M.I.C.)
From the text: as §1

[2] = tested on: Staph. aureus (Pen-Res) A-9606; experiment: MIC, tube dilution, Staphylococcus aureus A9606 (Pen-Res); assay type: cell-based; details: Staphylococcus aureus, Staph. aureus A9606 (Pen-Res); overnight 37° C.; read-out: Minimum Inhibitory Concentration (M.I.C.)
From the text: as §1

[3] = tested on: Staph. aureus (Meth-Res) A-15097; experiment: MIC, tube dilution, Staphylococcus aureus A15097 (Meth-Res); assay type: cell-based; details: Staphylococcus aureus, overnight 37° C.
From the text: as §1

Ent. cloacae A-9656 = experiment: MIC, tube dilution, Enterobacter cloacae A9656; assay type: cell-based; details: Enterobacter cloacae, A9656, Enterobacter cloacae A9656; overnight 37° C.; read-out: Minimum Inhibitory Concentration (M.I.C.)
From the text: as §1

Proteus vulgaris A21559 = experiment: MIC, tube dilution, Proteus vulgaris A21559; assay type: cell-based; details: Proteus vulgaris, A21559, Proteus vulgaris A21559; overnight 37° C.; read-out: Minimum Inhibitory Concentration (M.I.C.)
From the text: as §1

[4] = tested on: Klebsiella species A20468; experiment: MIC, tube dilution, Klebsiella species A20468; assay type: cell-based; details: Klebsiella species (K. pneumoniae) A20468; overnight 37° C.; read-out: Minimum Inhibitory Concentration (M.I.C.)
From the text: as §1

Proteus rettgeri A21203 = experiment: MIC, tube dilution, Proteus rettgeri A21203; assay type: cell-based; details: Providencia rettgeri, A21203, Proteus rettgeri A21203; overnight 37° C.; read-out: Minimum Inhibitory Concentration (M.I.C.)
From the text: as §1

Str. pyogenes A-9604 = experiment: MIC, tube dilution, Streptococcus pyogenes A9604; assay type: cell-based; details: Streptococcus pyogenes, A9604, Str. pyogenes A9604; overnight 37° C., Nutrient Broth; read-out: Minimum Inhibitory Concentration (M.I.C.)
From the text: as §1

E. coli A-15119 = experiment: MIC, tube dilution, Escherichia coli A15119; assay type: cell-based; details: Escherichia coli, A15119, E. coli A15119; overnight 37° C.; read-out: Minimum Inhibitory Concentration (M.I.C.)
From the text: as §1

Ps. aeruginosa A-9843A = experiment: MIC, tube dilution, Pseudomonas aeruginosa A9843A; assay type: cell-based; details: Pseudomonas aeruginosa, A9843A, read-out: Minimum Inhibitory Concentration (M.I.C.), Pseudomonas aeruginosa A9843A; overnight 37° C.
From the text: as §1

[5] = Pseudomonas aeruginosa, A21213, Pseudomonas aeruginosa A21213
[6] = Staph. aureus A15097 (Meth-Res), read-out: Minimum Inhibitory Concentration (M.I.C.)

Compound	MIC (Ent. cloacae A-9659)	MIC [1]	MIC (Str. pneumoniae A-9585)	MIC (Str. faecalis A-20688)	ED50 (S. aureus A9537; 8 × 10^5 organisms)	MIC (Ser. marcescens A-20019)	MIC (Ps. aeruginosa A-21213; [5])	MIC (K. pneumoniae A-15130)	MIC (E. coli A-20341-1)	MIC (Staph. aureus A-9537)	MIC (Pr. mirabilis A-9900)	MIC (Pr. morganii A-15153)	MIC [2]	MIC (Ent. cloacae A-9656)	MIC (Proteus vulgaris A21559)	MIC [4]	MIC (Proteus rettgeri A21203)	MIC (Str. pyogenes A-9604)	MIC (E. coli A-15119)	MIC (Ps. aeruginosa A-9843A)	other results
CC1=C(C(=O)O)N2C(=O)[C@H]([C@@H]3COC(C)(C)O3)[C@H]2S1 (relative stereo) [Example 103, (4'R,5R,6S and 4'S,5S,6R) 6-(2',2'-Dimethyl-1',3'-dioxolan-4'-yl)-2-methylpenem-3-carboxylic Acid (Isomer C)]	> 63 µg/mL	> 32 µg/mL	63 µg/mL (≈ 221 µM)	> 63 µg/mL	> 5 mg/kg	> 63 µg/mL	63 µg/mL (≈ 221 µM)	> 63 µg/mL	> 63 µg/mL	> 63 µg/mL	63 µg/mL (≈ 221 µM)	> 63 µg/mL	> 63 µg/mL	> 63 µg/mL	> 63 µg/mL	> 63 µg/mL	> 63 µg/mL	63 µg/mL (≈ 221 µM)	> 63 µg/mL	63 µg/mL (≈ 221 µM)	MIC [3, 6]: > 63 µg/mL
O=C(O)C1=C(CCC[N+](=O)[O-])SC2CC(=O)N12 (stereo not drawn) [Example 91, 2-(3'-Nitropropyl)-penem-3-carboxylic Acid]	4 µg/mL (≈ 15.5 µM)	16 µg/mL	0.25 µg/mL (≈ 0.968 µM)	63 µg/mL (≈ 244 µM)		4 µg/mL (≈ 15.5 µM)		16 µg/mL (≈ 62 µM)	63 µg/mL (≈ 244 µM)	0.25 µg/mL (≈ 0.968 µM)	1 µg/mL (≈ 3.87 µM)	4 µg/mL (≈ 15.5 µM)	32 µg/mL (≈ 124 µM)	2 µg/mL (≈ 7.74 µM)	8 µg/mL (≈ 31 µM)	> 125 µg/mL	2 µg/mL (≈ 7.74 µM)	0.25 µg/mL (≈ 0.968 µM)	1 µg/mL (≈ 3.87 µM)	125 µg/mL (≈ 484 µM)	ED50 (S. aureus A9537; 9.1 × 10^5 organisms): 9.6 mg/kg; MIC (Ps. aeruginosa A-21213; Pseudomonas aeruginosa A21213): 125 µg/mL (≈ 484 µM); MIC ([3]; read-out: Minimum Inhibitory Concentration (M.I.C.), Staph. aureus A15097 (Meth-Res)): > 125 µg/mL
CC(N)CCC1=C(C(=O)O)N2C(=O)C[C@H]2S1 (stereo partly drawn) [Example 80, 2-(3'-Aminobutyl)-penem-3-carboxylic Acid]	16 µg/mL (≈ 66 µM)	0.25 µg/mL	0.03 µg/mL (≈ 0.124 µM)	16 µg/mL (≈ 66 µM)	0.6 mg/kg	8 µg/mL (≈ 33 µM)	> 63 µg/mL	8 µg/mL (≈ 33 µM)	8 µg/mL (≈ 33 µM)	0.06 µg/mL (≈ 0.248 µM)	4 µg/mL (≈ 16.5 µM)	16 µg/mL (≈ 66 µM)	0.5 µg/mL (≈ 2.06 µM)	8 µg/mL (≈ 33 µM)	8 µg/mL (≈ 33 µM)	> 63 µg/mL	8 µg/mL (≈ 33 µM)	0.06 µg/mL (≈ 0.248 µM)	4 µg/mL (≈ 16.5 µM)	63 µg/mL (≈ 260 µM)	MIC [3, 6]: > 63 µg/mL
